{
  "source": "patent EP4744680A1",
  "about": "“TARGETED CHEMICAL DRUG AND PREPARATION METHOD THEREFOR, PHARMACEUTICAL COMPOSITION, AND USE OF TARGETED CHEMICAL DRUG” (Bai Yao Zhi Da (Beijing) Nanobio Technology Co., Ltd., priority 2023, dated 2025)",
  "tested_on": "N87 gastric cancer",
  "experiment": "In vivo antitumor efficacy in an N87 gastric cancer mouse model (drug of Example 1)",
  "design": "species or system mouse (BALB/c nude)",
  "conditions": "0.06mg i.v. (tail vein) twice per week for 5 weeks",
  "protocol": "(1)..Cell culture: Tumor cells were cultured in RPMI-1640 medium supplemented with heat-inactivated 10% fetal bovine serum, 100 U/mL penicillin, 100 µg/mL streptomycin, and 2 mM L-glutamine, in a humidified incubator at 37 °C with 5% CO2.Subculture was performed every 3-4 days after confluence; tumor cells in logarithmic growth phase were used for in vivo inoculation. (2).Tumor cell inoculation and grouping: Tumor cells (1 × 10^7) resuspended in PBS: Matrigel were inoculated subcutaneously into the right flank of each mouse.When tumors reached approximately 80-100 mm^3, animals were randomized into groups for dosing. […] (3).Dosing Regimen: Table 22\nThe dosing volume is 200 µL per 20 g mouse, with the administered dose calculated on a body-weight basis; the observation period is 60 days, adjustable according to the condition of the animals and tumor status.\n• a. Tumor volume: Measured twice weekly using vernier calipers. The long and short diameters were recorded; tumor volume was calculated as: Volume = 0.5 × length × (width)^2. • b. Post-administration reactions in animals: At each tumor-measurement time point, body weight was recorded.Changes in body weight relative to dosing time were documented.Survival and general health (e.g., activity, feeding) were monitored throughout the dosing period. • c. Tumor excision, weighing, and photography: at the end of the study, mice were euthanized; tumors were excised, photographed and collected; specimens were fixed or snap-frozen as required. • a) Photograph each animal post-euthanasia with tumor in situ; • b) Dissect and weigh each subcutaneous tumor; • c) Arrange all tumors on a white board according to group codes and photograph; then bisect longitudinally, realign by group code, and photograph again. • d) Tumors were snap-frozen or formalin-fixed per requirements. • d.\n• a. […] Inhibition Rate of Tumor Weight (IRTW, %) IRTW (%) = (Wcontrol group−Wtreatment group)/Wcontrol group × 100, [formula] where W is tumor weight.IRTW > 60% is considered effective.",
  "data": [
    {"smiles": "COc1cccc2c1C(=O)c1c(O)c3c(c(O)c1C2=O)C[C@@](O)(C(=O)CO)C[C@@H]3O[C@H]1C[C@H](N)[C@@H](O)[C@H](C)O1", "note": "[Epirubicin drug substance (API), Epirubicin]", "values": [
      {"measurement": "Tumor Growth Inhibition Rate at Different Days Post-Inoculation (%)", "setting": "Day 9", "result": 8.44, "unit": "%"},
      {"measurement": "Tumor Growth Inhibition Rate at Different Days Post-Inoculation (%)", "setting": "Day 13", "result": 0.40, "unit": "%"},
      {"measurement": "Tumor Growth Inhibition Rate at Different Days Post-Inoculation (%)", "setting": "Day 17", "result": 6.68, "unit": "%"},
      {"measurement": "Tumor Growth Inhibition Rate at Different Days Post-Inoculation (%)", "setting": "Day 20", "result": 7.83, "unit": "%"},
      {"measurement": "Tumor Growth Inhibition Rate at Different Days Post-Inoculation (%)", "setting": "Day 23", "result": 12.46, "unit": "%"},
      {"measurement": "Tumor Growth Inhibition Rate at Different Days Post-Inoculation (%)", "setting": "Day 27", "result": 23.34, "unit": "%"},
      {"measurement": "Tumor Growth Inhibition Rate at Different Days Post-Inoculation (%)", "setting": "Day 30", "result": 25.87, "unit": "%"},
      {"measurement": "Tumor Growth Inhibition Rate at Different Days Post-Inoculation (%)", "setting": "Day 34", "result": 31.16, "unit": "%"},
      {"measurement": "Tumor Growth Inhibition Rate at Different Days Post-Inoculation (%)", "setting": "Day 37", "result": 36.26, "unit": "%"}
    ]}
  ]
}
